In patent US20070191493A1, “Use of n-alkanols as activators of the cftr channel” (priority 2003, published 2007):

How the values were obtained:
CFTR channel = CFTR channel (Homo sapiens, UniProt P13569); test: 125I radioactive iodide efflux in CHO-CFTR(+) cells; type: cell-based; design: expressed in transfected cells; host or cells: CHO (Chinese hamster ovary) cells, CHO-CFTR(+); conditions: CHO-CFTR(+) cells; n-alkanols 1 mM, FSK 1 μM, A23187 2 μM, α-GA 10 and 100 μM
Experimental: The cells are cultured in 24-well plates with a dilution to 1/10 after passage. […] The operation is repeated every 30 s for 2 to 6 min. […] All the samples are counted in a gamma counter (Kontron). The precipitated proteins are solubilized in 0.1N NaOH and quantified using a calorimetric test.
The tracer contained in the cell layer at the beginning of the efflux is calculated as the sum of the samples and of the extracts counted. The efflux curves are constructed by expressing the percentage of the content remaining in the cell layer (I %) with respect to time. The stimulated or nonstimulated efflux rate constants (k, min^−1) are determined by smoothing the efflux curves to a monoexponential function I %=100*exp(−kt) using a linear regression of the neperian logarithm of the data, k is used to calculate the iodide released into the medium with respect to time. The hypothesis is made that, in the presence of a stimulator, the efflux is the sum of two iodide effluxes occurring in parallel: a basal efflux and a stimulated efflux characterized, respectively, by the constants kb and ks. The total net efflux is then described by the equation It^%=100*(1−exp(−ktt)) where kt is the sum of kb and ks. Finally, ks calculated as kt−kb is used to establish a dose-response relationship for antagonists. The data is expressed as means ±SD, and the t-test is used to determine the significances. The concentration-response curves for agonists or for antagonists are smooth using the hyperbolic equation Y=Ymax*X/(EC5C+X), where Y is the response. Y begins at the basal level and progresses to the plateau (Ymax), X is the concentration and the half-effect values (EC are calculated using GraphPad Prism v3.0 (GraphPad software)).

CHO cells = test: ATP-induced calcium response (cellular uncoupling) in CHO cells; type: cell-based, Chinese hamster; conditions: α-GA 10 to 100 μM, octan-1-ol 1 mM
Experimental: The Ca^2+ measurements are carried out in the presence of fura-2 (impermeant fluorescent probe) which binds […]. The cells are incubated in serum-free DMEM/F12 culture medium in the presence of the permeant form of fura-2 (fura-2/AM, 2.5 μM) for 1 h at 37° C. The cells, placed on the platform of an epifluorescent microscope (Olympus) (20× objective), are perfused with the solutions to be tested (e.g. ATP, octanol). They are sequentially illuminated at 340 nm and 380 nm and the fluorescence emitted (F) is measured at 510 nm. It is detected via a 12-bit CCD camera (Sony) connected to a data processing computer unit (TILL Photonics). The intracellular Ca^2+ concentration [Ca^2+]i is calculated using the Grynckiewicz equation (Grynckiewicz et al., 1985): [Ca^2+]i=Kdi *(R−Rmin/Rmax−R), based on the ratiometric analysis R (340/380 nm) of the fluorescence (TILL Vision); Rmax and Rmin denote the ratio of fluorescence measured in the presence or in the absence of Ca^2+.

Chain of CFTR channel (P13569 whole entry): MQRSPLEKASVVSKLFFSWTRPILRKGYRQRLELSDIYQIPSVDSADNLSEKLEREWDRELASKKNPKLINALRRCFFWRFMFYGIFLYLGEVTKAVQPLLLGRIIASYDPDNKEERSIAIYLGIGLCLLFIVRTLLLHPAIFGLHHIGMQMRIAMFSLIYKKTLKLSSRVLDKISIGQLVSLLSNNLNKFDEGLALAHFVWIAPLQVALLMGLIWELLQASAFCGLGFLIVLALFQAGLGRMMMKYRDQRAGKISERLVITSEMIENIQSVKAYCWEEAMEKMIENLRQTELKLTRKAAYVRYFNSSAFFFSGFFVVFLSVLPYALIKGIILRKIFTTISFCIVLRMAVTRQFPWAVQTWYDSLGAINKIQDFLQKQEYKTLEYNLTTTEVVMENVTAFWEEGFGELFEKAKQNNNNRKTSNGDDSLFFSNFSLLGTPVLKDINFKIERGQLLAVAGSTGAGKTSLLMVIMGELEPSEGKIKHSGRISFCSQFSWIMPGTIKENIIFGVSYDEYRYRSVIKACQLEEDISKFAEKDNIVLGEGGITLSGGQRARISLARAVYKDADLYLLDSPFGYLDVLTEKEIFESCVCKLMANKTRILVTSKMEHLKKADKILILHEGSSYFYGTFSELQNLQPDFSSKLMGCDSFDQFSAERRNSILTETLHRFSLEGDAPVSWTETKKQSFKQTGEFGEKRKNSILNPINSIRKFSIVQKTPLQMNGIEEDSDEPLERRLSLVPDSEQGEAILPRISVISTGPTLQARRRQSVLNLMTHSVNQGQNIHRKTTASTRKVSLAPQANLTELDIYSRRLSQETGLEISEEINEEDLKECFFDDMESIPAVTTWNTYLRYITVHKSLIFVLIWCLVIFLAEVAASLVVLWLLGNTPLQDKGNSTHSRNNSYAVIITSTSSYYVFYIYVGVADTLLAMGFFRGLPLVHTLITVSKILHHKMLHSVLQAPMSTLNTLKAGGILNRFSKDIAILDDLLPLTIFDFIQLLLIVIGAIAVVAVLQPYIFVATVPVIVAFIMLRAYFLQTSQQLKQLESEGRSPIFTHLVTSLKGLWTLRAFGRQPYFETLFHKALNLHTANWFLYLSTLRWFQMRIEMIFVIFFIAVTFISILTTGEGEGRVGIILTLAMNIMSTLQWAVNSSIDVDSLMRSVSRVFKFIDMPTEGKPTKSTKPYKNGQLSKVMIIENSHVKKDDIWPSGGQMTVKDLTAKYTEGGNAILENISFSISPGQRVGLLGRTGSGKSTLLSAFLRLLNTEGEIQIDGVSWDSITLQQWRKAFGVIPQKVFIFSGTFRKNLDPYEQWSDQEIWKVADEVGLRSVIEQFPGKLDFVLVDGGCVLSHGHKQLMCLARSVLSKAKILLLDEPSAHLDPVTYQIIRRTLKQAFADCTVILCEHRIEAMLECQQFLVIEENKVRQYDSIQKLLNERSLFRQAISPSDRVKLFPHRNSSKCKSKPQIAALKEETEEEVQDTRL

CC1(C)[C@@H](O)CC[C@]2(C)[C@H]3C(=O)C=C4[C@H]5C[C@@](C)(C(=O)O)CC[C@]5(C)CC[C@@]4(C)[C@]3(C)CC[C@@H]12 [α-GA, 18-alpha glycerrhetinic acid, reference compound]
activation of CFTR (125I efflux), in words (CFTR channel): no effect | cellular uncoupling shown by ATP-induced calcium response (CHO cells): clearly uncouples the cells
